{"source": "paper PMC6750108", "about": "“Crystal Structure of 4-Hydroxyphenylpyruvate Dioxygenase in Complex with Substrate Reveals a New Starting Point for Herbicide Discovery” (Research, 2019)", "key": {"[1]": {"target": "T1, human HPPD (Homo sapiens, UniProt P32754)", "T1 construct": "gene HPD", "T1 sequence (P32754 2-393)": "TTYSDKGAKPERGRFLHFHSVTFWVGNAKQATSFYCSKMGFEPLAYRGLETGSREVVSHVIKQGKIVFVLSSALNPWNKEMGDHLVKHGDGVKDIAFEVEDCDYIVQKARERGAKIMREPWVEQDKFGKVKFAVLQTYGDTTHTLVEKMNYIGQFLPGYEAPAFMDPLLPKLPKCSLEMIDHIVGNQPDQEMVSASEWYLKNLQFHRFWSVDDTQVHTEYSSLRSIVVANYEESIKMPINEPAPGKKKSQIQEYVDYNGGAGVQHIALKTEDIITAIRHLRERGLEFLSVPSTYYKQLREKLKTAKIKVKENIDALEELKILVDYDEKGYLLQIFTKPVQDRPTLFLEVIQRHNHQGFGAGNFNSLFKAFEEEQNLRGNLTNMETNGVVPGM", "experiment": "inhibition kinetics (supplement Method S2)", "type": "biochemical"}, "[2]": {"target": "T2, AtHPPD (Arabidopsis thaliana, UniProt P93836)", "T2 construct": "gene HPD; full-length, N-terminal His tag (pET15b), E. coli BL21 (DE3); Ni-NTA, ion exchange, size exclusion; homodimers in crystal", "T2 sequence (P93836 1-445)": "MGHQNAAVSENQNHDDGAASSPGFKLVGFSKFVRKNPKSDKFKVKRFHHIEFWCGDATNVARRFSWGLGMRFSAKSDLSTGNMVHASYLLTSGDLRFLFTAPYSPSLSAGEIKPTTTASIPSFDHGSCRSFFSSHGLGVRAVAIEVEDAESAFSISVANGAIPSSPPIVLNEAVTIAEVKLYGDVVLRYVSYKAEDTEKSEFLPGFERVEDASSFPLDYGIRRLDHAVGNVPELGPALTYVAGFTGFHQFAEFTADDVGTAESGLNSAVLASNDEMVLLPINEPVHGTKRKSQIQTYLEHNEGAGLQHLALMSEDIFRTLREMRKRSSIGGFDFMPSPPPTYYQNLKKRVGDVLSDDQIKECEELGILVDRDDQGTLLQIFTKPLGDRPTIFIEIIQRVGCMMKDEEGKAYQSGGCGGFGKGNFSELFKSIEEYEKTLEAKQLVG", "experiment": "HGD-coupled assay at […] nm, progress curves", "type": "biochemical"}}, "data": [{"molecule": "Cc1cccc(C)c1-n1c(=O)c2cc(C(=O)C3C(=O)CCCC3=O)ccc2n(C)c1=O", "note": "[Y13161]", "values": [{"measurement": "Ki", "setting": "[1]", "result": "179 ± 7.7", "unit": "nM"}, {"measurement": "Ki", "setting": "[2]", "result": "24.2 ± 1.01", "unit": "nM"}]}]}
